Reference: patent publication US9371527B2, “Compositions and methods related to protein displacement therapy for myotonic distrophy” (University of Rochester, priority 2006, dated 2016)

Experiments:
ClC-1 protein [1] = test: ClC-1 immunofluorescence after ClC-1 antisense morpholino, HSA^LR TA muscle; format: in vivo, HSA^LR mice; details: 3 weeks after treatment, vs invert-treated control
Experimental: (§1) The morpholino was complementary to the 3′ splice site of ClC-1 pre-mRNA. Muscle fibers are outlined by wheat germ agglutinin (wga) and nuclei are highlighted by DAPI. FIGS. 24D and 24 E show brightfield (D) and fluorescence (E) images of a single FDB fiber showing preferential nuclear localization of the antisense morpholino (post injection day 5). […] Bars=20 μM.
(§2) Frozen transverse sections of TA muscle (10 μM) were stained with affinity-purified rabbit polyclonal anti-ClC-1 antibody (1:50; Alpha Diagnostic International) as previously described (Kanadia, R. N., et al. (2006) Proc Natl Acad Sci USA 103:11748-11753). Muscle sections from ClC-1 null mice and WT FVB mice served as negative and positive controls on each slide. Z-plane stacks consisting of 8 images separated by 0.25 μM were captured and deconvolved using Autoquant v9.3 software (Autoquant Imaging). Maximum-projection images were obtained using Metavue software (Universal Imaging Corporation). Exposure time and thresholding were identical for all comparisons of antisense vs. invert controls.

[2] = Tissue uptake and distribution of carboxyfluorescein-labeled antisense morpholino; format: in vivo, HSA^LR mice; details: for subcellular localization of antisense morpholino: muscle fibers, TA 3 weeks / FDB day 5
Experimental: Antisense morpholino targeting the 3′ splice junction of ClC-1 exon 7a was injected into foot pad muscle of HSA^LR mice under general anesthesia. Uptake into muscle fibers was enhanced by in vivo electroporation. The morpholino was tagged with fluorescein. 4 days later, individual FDB muscle fibers were isolated. […] As a control, the opposite footpad was injected with morpholino having the inverted sequence. […] The peak current density in HSA^LR mice (center panel) is much lower than in wild-type mice (left panel). However, after morpholino treatment in HSA^LR mice (right panel), the current density is restored to levels that are similar to wild-type mice. […] The antisense morpholino (closed squares) restores chloride current density to normal levels (open circles or triangles).
as §1
The strategy for suppressing the inclusion of exon 7a is diagrammed in FIG. 23A. The morpholino AONs were complementary to the 3′ or 5′ splice sites of exon 7a in the ClC-1 pre-mRNA (FIG. 23B). To examine tissue uptake, a carboxyfluorescein-labeled morpholino was injected into tibialis anterior (TA) muscle of HSA^LR mice. […] To improve uptake and distribution of AON, voltage pulses were used to electroporate muscle fibers after the AON injection.
HSA^LR (Mankodi, A., et al. (2000) Science 289:1769-1773) or Mbnl1^ΔE3/ΔE3 mice (Kanadia, R. N., et al. (2003) Science 302:1978-1980) were anesthetized by intraperitoneal injection of 100 mg/kg ketamine, 10 mg/kg xylazine, and 3 mg/kg acepromazine. TA muscle was pretreated by intramuscular injection of bovine hyaluronidase (15 μl, 0.4 U/μl) (Sigma) (McMahon, J. M., et al. (2001) Gene Ther 8:1264-1270). Two hours later, 10 or 20 μg of morpholino in a total volume of 20 μl phosphate buffered saline (PBS) was injected using a 30-gauge needle. TA muscle was then electroporated using electrodes placed parallel to the long axis of the muscle. Electroporation parameters were 100 V/cm, 10 pulses at 1 Hz, and 20 ms duration per pulse. Antisense or control morpholino with inverted sequence was injected into TA muscles of opposite limbs. The determination of which TA received antisense morpholino was randomized, and investigators remained blinded to this assignment until EMG analyses were completed. Other analyses were performed without blinding. For experiments to determine the distribution of injected oligos, the antisense morpholino was labeled with carboxyfluorescein and cryosections of muscle (10 μM) were examined by fluorescence microscopy, with or without fixation in 4% paraformaldehyde. Some sections were co-labeled with TRITC-wheat germ agglutinin (Parsons, S. A., et al. (2003) Mol Cell Biol 23:4331-4343) (50 μg/ml in PBS; Sigma) and 4′,6-diamidino-2-phenylindole (DAPI) to highlight the surface membranes and nuclei of muscle fibers.

[3] = system: Titin, ZASP, Serca1 alternative splicing; test: RT-PCR of alternative splicing of other genes misregulated in DM1 after ClC-1 antisense morpholino; format: in vivo, HSA^LR mice; details: HSA^LR TA muscle
From the text: HSA^LR and WT mice have the same (FVB) inbred strain background. […] FIGS. 25D and 25E show the percentage of ClC-1 splice products that include exon 7a is shown at 3 (D) and 8 (E) weeks following morpholino injection. Mean±s.d.; n=3 per group; **P<0.001; *P=0.035 antisense- versus invert-treated controls; t-test. […] ClC-1 mRNA level is expressed in arbitrary units relative to housekeeping gene RNA polymerase II transcription factor IIB. Mean±s.d.; n=3 per group; *P=0.06 for antisense vs invert-treated control; t-test.
Mice were sacrificed three or eight weeks after morpholino injection. TA muscles were removed and frozen in liquid nitrogen. Total RNA was isolated with TriReagent (Molecular Research Center). cDNA synthesis was primed with oligo dT as described previously (Mankodi, A., et al. (2002) Mol Cell 10:35-44). Assays for alternative splicing of ClC-1 and Titin were described previously (Mankodi, A., et al. (2002) Mol Cell 10:35-44; Lin, X., et al. (2006) Hum Mol Genet 15:2087-2097). Primer sequences were
RT-PCR products (22 cycles) were separated on agarose gels, stained with SYBR green II, and scanned on a laser fluorimager (Molecular Dynamics). Band intensity was quantified using ImageQuant software. Total levels of ClC-1 mRNA were determined by quantitative real-time RT-PCR (Taqman, Applied Biosystems) relative to housekeeping gene RNA polymerase II transcription factor IIB.

ClC-1 protein [4] = test: ClC-1 immunofluorescence, Mbnl1^ΔE3/ΔE3 mice; format: in vivo; details: TA muscle, 3 weeks; listed as antisense morpholino
Experimental: FIGS. 27A, 27B, 27C, 27D, and 27E show antisense morpholino represses exon 7a inclusion, restores ClC-1 protein expression, and rescues myotonia in Mbnl1^ΔE3/ΔE3 mice. […] Bar=20 μM. […] Mean±s.d.; n=3 per group; **P<0.0001 antisense- versus invert-treated control; ANOVA.
as §2

## antisense 1: morpholino 5′-CCAGGCACGGTCTGCAACAGAGAAG-3′ targeting the 3′ splice site of ClC-1 exon 7a (all phosphorodiamidate morpholino (PMO))
ClC-1 protein [1]; listed as antisense morpholino
  sarcolemmal ClC-1 protein: increase of sarcolemmal ClC-1 protein
ClC-1 protein [1]; listed as morpholino AON
  sarcolemmal ClC-1 protein: increased the level of ClC-1 protein in the sarcolemma
[2]; FDB fibers, 4 days after foot pad injection + electroporation
  fibers showing fluorescein uptake: Greater than 90%
[2]; TA injection followed by electroporation
  tissue uptake of antisense morpholino: throughout the TA muscle
[2]; TA injection without electroporation
  tissue uptake of antisense morpholino: limited to the needle track
[2]; listed as AON
  subcellular localization of antisense morpholino: accumulate preferentially in the nucleus
[2]; listed as antisense morpholino
  subcellular localization of antisense morpholino: localizes preferentially to muscle nuclei
[3]
  alternative splicing of Serca1: nor did it correct the alternative splicing
  alternative splicing of ZASP: nor did it correct the alternative splicing
[3]; listed as ClC-1 antisense morpholino
  alternative splicing of Titin m-line exon 5: did not correct the misregulated alternative splicing of Titin m-line exon 5
[3]; listed as antisense morpholino
  alternative splicing of Titin m-line exon 5: nor did it correct the alternative splicing
ClC-1 protein [4]
  ClC-1 protein at the sarcolemma (immunofluorescence): increased the expression of ClC-1 protein at the sarcolemma
